Data: patent US10352936B2, “Use of tumor Fas expression to determine response to anti-cancer therapy” (ApopLogic Pharmaceuticals, Inc., priority 2011, dated 2019)

System: naturally occurring appendicular osteosarcoma
Assay: Survival of dogs treated with neoadjuvant FasL plus standard of care versus carboplatin standard of care
Format: in vivo, dog
Settings: whole treatment group
Method: Without being bound to theory, the principle of this treatment was based on a 10-day delay of therapy. The rationale for a 10-day delay approach was based on our preclinical data showing that there was statistically significant immunologic protection in animals immunized 10 days before challenge, as well as on the practicality of any delay of therapy approach. The experimental therapy was performed on Day 1, and dogs were followed to assess local and/or systemic toxicity for 10 days. At the end of the investigational period, dogs were treated using standard-of-care for OS.
The treatment sequence was as follows: On Day 0—history, physical, CBC, biochemical profile, urinalysis, chest radiographs, +/− bone scan. On Day 1, lesion biopsy and intratumoral injection. On Days 3, 7, and 10, toxicity monitoring with physical exam, CBC, biochemical profile, urinalysis, lameness evaluation and quality of life assessment. Day 10, amputation of affected limb.
Patient selection, treatment, and biological sample preparation were conducted as described in Example 1. Fifty seven dogs were enrolled in the study. Two dogs were diagnosed with intramedullary tumors that were not OS, two dogs were withdrawn from the study, two dogs had pre-existing metastasis, two were lost to follow up, and four died of other causes. The rest of the patients were followed until their death, which was then determined to be disease-related (“died of disease”) or unrelated to disease recurrence (“died of other causes”).
Table 1 depicts disease free interval (DFI), overall survival (OS), and percentage of dogs alive at 200 days following treatment and amputation that were treated with standard of care (carboplatin (carbo) control) and treated with FasL. Additionally, the disease free interval and overall survival of those dogs which had inflammation scores of 1 (low inflammation) as determined by histopathologic evaluation (see Example 1) or inflammation scores of 2-3 (moderate to high inflammation) is depicted. […]

In the case of `[NH2][Pt]1([NH2])[O]C(=O)C2(CCC2)C(=O)[O]1` [Carbo control, carboplatin], the “Disease Free Interval” value was 213, the “Overall Survival” value was 231 days and the “% Alive at 200 Days” value (200 days following treatment and amputation) was 56%.
